In patent US9944971B2, “Determination of direct thrombin inhibitors in fluids like serum or urine” (DOASENSE GmbH, priority 2011, dated 2018):

Legend:
[1] = Concentration of dabigatran in urine of a treated patient, read from curve of spiked urine; design: species or system human
Method: This program quantifies the colors red, yellow and blue. […] Mean values were calculated from double values.

thrombin = molecular target: T1, thrombin (Bos taurus, UniProt P00735); assay: Chromogenic thrombin (factor IIa) inhibition test with substrate S-2238, absorption at 405 nm; type: biochemical; details: samples of plasma, serum and urine spiked at different concentrations, FIGS. 2 and 3
T1 construct: purchased Chromogenix
Method: Dissolve 1 ampule thrombin 10 U with 1 ml aqua. dest and is brought to 11.5 ml with Tris-Buffer. Additionally, add 1 ml aprotinin 500 KIU/ml.
The concentration of Dabigatran and Hirudin was carried out using the standard curve. The concentration of Dabigatran/Hirudin was determined by the optical density (OD) of the sample.

Compound | concentration of dabigatran ([1]; human urine from a patient treated with dabigatran, undiluted) [ng] | concentration of dabigatran ([1]; patient urine diluted 1:10 with urine not containing dabigatran) [ng] | concentration of dabigatran ([1]; patient urine diluted 1:100 with urine not containing dabigatran) [ng] | inhibition of the activity of thrombin and release of para-nitroaniline from chromogenic substrate S2238 (thrombin)
[H]/N=C(/N)c1ccc(NCc2nc3cc(C(=O)N(CCC(=O)O)c4ccccn4)ccc3n2C)cc1 [Dabigatran] | 85 | 8.5 | 0.85 | –
Hirudin | – | – | – | in a dose-dependent manner
